Measured values published in patent US20100204487A1, “PROCESS FOR MAKING THIOPHENE CARBOXAMIDE DERIVATIVES” (priority 2007, published 2010).
Counter-ions that a name gives are not always drawn.

What was measured:
[1] = in vivo
[2] = pharmacokinetics / bioavailability of free acid and salts of the compound of Formula I; details: free acid

exposure [1] | bioavailability [2] | Compound
doubled the exposure | – | Cc1sc(C)c(C(=O)NC2(c3ccc(C(=O)O)cc3)CC2)c1Cc1ccc(C(F)(F)F)cc1 [Et2NH salt, 4-{1-[({2,5-dimethyl-4-[4-(trifluoromethyl)benzyl]-3-thienyl}carbonyl)amino]cyclopropyl}benzoic acid diethylamine salt]
– | poorly bioavailable | Cc1sc(C)c(C(=O)NC2(c3ccc(C(=O)O)cc3)CC2)c1Cc1ccc(C(F)(F)F)cc1 [free acid of Formula I]
